From patent US20120065165A1, “COMPOSITIONS AND METHODS OF TREATING ENDOTHELIAL DISORDERS” (ARGINETIX, INC, priority 2008, published 2012)

Assays:
eNOS = eNOS activity (L-arginine to L-citrulline) in human diabetic corpus cavernosum extracts; type: biochemical; conditions: 1 mM ABH added to diabetic penile extracts
Text: In order to study the role of arginase in the development of these defects, corpus cavernosum tissue extracts were obtained from non-diabetic and diabetic men undergoing placement of a penile prosthesis for the management of their severe ED (Bivalacqua, et al., 2001 Biochem. Biophys. Res. Commun. 283: 923-927). […] Constitutive nitric oxide synthase activity (eNOS activity; calcium-dependent conversion of L-arginine to L-citrulline) is […] in human corporal tissue from diabetic patients vs. controls (See FIG. 7C), *P<0.05 when compare to controls; in the presence of the selective arginase inhibitor ABH, eNOS activity in human diabetic corpora caversosa is restored, **P<0.05 when compared to diabetic (Bivalacqua, et al., 2001 Biochem. Biophys. Res. Commun. 283: 923-927).
Diabetic corporal tissue extracts were prepared for the measurement of arginase activity by the production of urea in the presence of labeled arginine (FIG. 7B).

arginase I [1] = target: T1, arginase I (Homo sapiens, UniProt P05089); conditions: cited from earlier work
T1 sequence (P05089 1-322): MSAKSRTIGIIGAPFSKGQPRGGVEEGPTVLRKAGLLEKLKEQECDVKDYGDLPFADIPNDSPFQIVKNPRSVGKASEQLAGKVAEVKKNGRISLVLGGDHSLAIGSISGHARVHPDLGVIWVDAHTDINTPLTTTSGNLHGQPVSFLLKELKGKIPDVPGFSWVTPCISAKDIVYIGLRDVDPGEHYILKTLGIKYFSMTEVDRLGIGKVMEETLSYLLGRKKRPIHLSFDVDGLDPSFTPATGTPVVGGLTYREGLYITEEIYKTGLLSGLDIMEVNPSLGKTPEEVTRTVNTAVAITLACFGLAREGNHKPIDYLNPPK

[2] = tested on: tissue explants from diabetic ZDF rats; experiment: Ex vivo ABH treatment of tissue explants from type 2 diabetic ZDF rats (Example 6); type: cell-based, rat; conditions: vs ZLC rats
Text: Biochemical and functional parameters of endothelial functions in a model of type 2 diabetes (Zucker Diabetic Fatty (ZDF) Rats) and in a control rat strain (Zucker Lean Control (ZLC) rat), are used to investigate the ex vivo effectiveness of ABH in improving these parameters. Vascular arginase activity and its role in the development of diabetic endothelial pathology have been previously characterized in models of Type 1 diabetes (Jelodar, et al., 2007 J. Reprod. Dev. 53: 317-321; Romero, et al., 2008 Circ. Res. 102: 95-102). […] Vascular endothelial function is measured using organ chambers in isolated rat arterial rings and in strips of erectile tissue collected from each rat strain.
ZDF rats have a mutation in the gene for the leptin receptor. […] Arginase I and II and eNOS mRNA and protein concentrations in these tissues are determined by RT-PCR and Western blot, respectively. Arginase activity is measured, as described in Example 4, by homogenizing the rat vessels in lysis buffer, removing cellular debris by centrifugation, and monitoring the hydrolysis of L-arginine using calorimetric determination of urea after the addition of isonitrosopropiophenone. […] The cellular location of arginase in this model of type 2 diabetes is determined by comparing the results of RT-PCR, Western blot, and arginase activity assays in endothelial-intact and endothelial-denuded aortic rings. […]

rat aortic rings = experiment: Vasorelaxation of aortic rings in organ chambers after 28 days oral ABH; type: in vivo
Method: To investigate whether these changes in vascular stiffness could be related to specific measures of endothelial function, rats were euthanized following treatment, and the thoracic aortas dissected and placed in organ chambers as previously described (White, et al., 2006 Hypertension 47: 245-251). Rat aortic rings were pre-constricted using phenylephrine (1 μM), and vasorelaxant response to the endothelial-dependent (NO mediated) vasodilator acetylcholine (ACh), administered at 1 μM to 10 μM, was determined. […] ABH had no effect on vascular endothelial relaxation in young rats.

arginase I [3] = conditions: tissue extracts from diabetic corpus cavernosa; cited from earlier work

N[C@@H](CCCCB(O)O)C(=O)O [ABH, 2(S)-Amino-6-boronohexanoic acid]
eNOS activity (eNOS): improved to levels that were comparable to those of control corpus cavernosum | potency as inhibitor of arginase I (arginase I [1]): most potent inhibitor | biochemical (arginase activity, NO, ROS) and functional (vascular endothelial, erectile) parameters [2]: return these biochemical and functional parameters to values that are similar to those of ZLC rats | responses to the endothelial-independent NO donor SNP in aortic rings (rat aortic rings; after 28 days oral ABH): not affected | vascular relaxation to acetylcholine (ACh) in aortic rings (rat aortic rings; aged rats, 28 days oral ABH, rings pre-constricted with phenylephrine 1 μM): substantially improved | vascular endothelial relaxation in aortic rings (rat aortic rings; young rats): no effect | levels of cGMP (arginase I [3]): increase levels of cGMP
